Experimental data as given in PMC11096368, “Transcriptomic signature, bioactivity and safety of a non-hepatotoxic analgesic generating AM404 in the midbrain PAG region” (Scientific Reports, 2024).
Values joined by “and” are separate entries in the source; they are usually repeats but may differ in a detail not shown here. Equal entries are not always repeated. Where two headings read alike, the source gives them in different places.

Legend:
[1] = Phase 1 single ascending dose (SAD) pharmacokinetics incl. food effect; type: in vivo, human; settings: for Tmax (h) / Tmax: N 6; for AUC(0-t) / AUC(0-inf) / Cmax / half-life / Tmax: human, plasma; for AUC(0-t) / AUC(0-inf) / Cmax / half-life: oral; for Tmax: po
Procedure: A randomized, double-blind, placebo-controlled Phase 1 trial (ClinicalTrials.gov identifier: NCT05484414) (02/08/2022) was conducted to assess the safety, tolerability, food effect, pharmacokinetics (PK), and pharmacodynamics (PD) of single and multiple ascending doses of SRP-001 (Quotient Sciences, Miami FL USA; Fig. 3h - k and Methods). The trial was conducted in accordance with the International Council for Harmonisation of Technical Requirements for Pharmaceuticals for Human Use (ICH), Guideline for GCP: Consolidated Guidance (E6), attained Institutional Review Board approval, and all applicable regulatory requirements for Phase 1, First in Human clinical trials. Safety measurements and plasma samples to determine PK parameters were collected throughout the study for all subjects and reviewed by the Safety Review Committee. PK stopping criteria were established to assure that systemic exposure to SRP-001 was less than or equal to the systemic exposure achieved at the NOAEL doses in the 28-day repeat-dose toxicology studies in the rat and dog. The trial’s Safety Advisory Committee has approved the publication of the Phase 1 results.
SRP-001 was administered as an oral nanosuspension to 56 healthy volunteers across five Single Ascending Dose (SAD) and two Multiple Ascending Dose (MAD) cohorts, with 42 subjects receiving SRP-001 and 14 receiving a placebo.
A two-part randomized, double-blind, placebo-controlled Phase 1 trial was conducted to assess the safety, tolerability, PK and PD of SRP-001 ascending doses (Quotient Sciences, Miami, FL, USA). The study was conducted in accordance with the International Council for Harmonisation of Technical Requirements for Pharmaceuticals for Human Use (ICH), Guideline for GCP: Consolidated Guidance (E6), and applicable regulatory requirements(s) including clinical research guidelines established by the Basic Principles defined in the U.S. 21 CFR Parts 50, 56, and 312 and the principles enunciated in the Declaration of Helsinki (revised version Fortaleza 2013). The clinical protocol and informed consent form were reviewed and approved by an Institutional Review Board (IRB; Advarra IRB, 6100 Merriweather Drive, Suite 600, Columbia, MD 21,044; Quotient Protocol No. SRP-101 and Quotient Sciences Study No. QSC205130; Quotient Sciences Miami, 3898 NW 7th Street, Miami, FL 33,126.). The study comprises a SAD (Part 1) assessment that includes a food effect assessment that contributes data to inform a subsequent MAD (Part 2) dose-ranging study. Safety measurements were collected throughout the study for all subjects. Blood samples were collected to determine the PK parameters of SRP-001 (ClinicalTrials.gov identifier: NCT05484414) (02/08/2022).
NHVs were dosed in the fasted state. The calorie/fat content of meals was not required to be controlled. Subjects were provided with a standardized menu. Subjects were provided with a light snack and then fasted from all food and drink (except water) for a minimum of 10 h on the day prior to dosing until approximately 4 h post-dose, at which time lunch was provided. An evening meal was provided at approximately 10 h post-dose/post-morning dose and an evening snack at approximately 14 h post-morning dose. Food effect was studied in the cohort receiving 900 mg SRP-001 in the fed state. A standard high-fat breakfast was given 30 min before dosing. On Day -1, these NHVs were provided with a light snack and fasted from all food and drink (except water) until the following morning, when they were provided with a standard high-fat breakfast. The breakfast had to be consumed over a maximum period of 25 min, with dosing occurring 30 min after the start of breakfast. Subjects were encouraged to eat their meal evenly over the 25 min period. It was acknowledged that some subjects took less time to eat, but dosing still occurred 30 min after the start of breakfast. Subjects had to consume at least 90% to be eligible for dosing. […]

[2] = tested on: FAAH, CORO2A, and RPL7L1 expression; assay: Single-cell RNA sequencing of midbrain PAG in the CFA model; type: in vivo; settings: 100 mg/kg, 1 h, CFA rats
Procedure: Subsequently, we endeavored to explore the single-cell transcriptome of the eVF rat mid-brain PAG region to further define the mechanisms of action (MOA) of chronic inflammatory pain and, ultimately, SRP-001- and ApAP-mediated pain modulation. Left hind paws of Sprague Dawley rats were injected with 150 µl of 50% complete Freund’s adjuvant (CFA), freshly diluted with sterile saline on the day of administration, to induce conspicuous long-standing inflammatory pain in the rats’ hind paws, along with mechanical hyperalgesia tested using eVF.to induce local inflammation and a chronic pain state. We dosed the rats with ApAP or SRP-001 (100 mg/kg), and after 1 h, they were euthanized to dissect the PAG from flash-frozen brains for 10xGenomics single-nuclei RNA library preparation (Fig. 4a).
For cell nuclei isolation from the midbrain PAG, they were flash-frozen, dissected (by a cryotome), minced into small pieces, homogenized, filtered through 70 μ strainer and centrifuged. ReadiDrop 7-AAD cell viability dye (Bio-Rad) added, and flow sorted the live (7-AAD positive) nuclei in a BioRad Cell Sorter S3e using purity mode. Nuclei were counted using Nexcelom automated Cellometer with acridine orange/propidium iodide (AOPI) stain, and the Nuclei Stock Concentration used so that 10,000 nuclei could be targeted for each sample. […]

[3] = 300 mg, Cohort 1, Regimen A, Fasted, geometric mean (geometric CV%)
[4] = 600 mg, Cohort 2, Regimen B, Fasted, geometric mean (geometric CV%)
[5] = 900 mg, Cohort 3, Regimen C, Fasted, geometric mean (geometric CV%)
[6] = 900 mg, Cohort 3, Regimen D, Fed, geometric mean (geometric CV%)
[7] = 2000 mg, Cohort 4, Regimen E, Fasted, geometric mean (geometric CV%)
[8] = relative bioavailability, Cohort 4, Regimen E, text b207 under 900 mg fed state

CCN(CC)C(=O)c1ccccc1S(=O)(=O)NCC(=O)Nc1ccc(O)cc1 [SRP-001, N,N-diethyl-2-[[2-(4-hydroxyanilino)-2-oxo-ethyl]sulfamoyl]benzamide]
Geometric mean AUC(0–24) as share of the exposure limits defined in the protocol ([1]; 2000 mg, fasted): 31%
Geometric mean Cmax as share of the exposure limits defined in the protocol ([1]; 2000 mg, fasted): 34%
Dose proportionality of geometric mean Cmax and AUC(0-∞) ([1]; 300 to 2000 mg): dose-proportional or super-proportional increase
T1/2 (h) ([1]; Cohort 1, Regimen A, 300 mg, Fasted, geometric mean (geometric CV%)): 2.38 (65.9) h
Tmax (h) ([1]; Cohort 2, Regimen B, 600 mg oral suspension, Fasted): 1 (1.00–2.00) h
T1/2 (h) ([1]; Cohort 2, Regimen B, 600 mg, Fasted, geometric mean (geometric CV%)): 5.04 (107.8) h
Tmax (h) ([1]; Cohort 3, Period 2: Regimen D, 900 mg oral suspension, Fed): 1 (1.00–8.00) h
T1/2 (h) ([1]; Cohort 3, Regimen C, 900 mg, Fasted, geometric mean (geometric CV%)): 3.26 (62.1) h
T1/2 (h) ([1]; Cohort 3, Regimen D, 900 mg, Fed, geometric mean (geometric CV%)): 3.79 (74.5) h
Tmax (h) ([1]; Cohort 4, Regimen E, 2000 mg oral suspension, Fasted): 1 (1.00–2.00) h
T1/2 (h) ([1]; Cohort 4, Regimen E, 2000 mg, Fasted, geometric mean (geometric CV%)): 5.96 (65.9) h
Increase of geometric mean AUC(0–24) ([1]; dose from 300 to 600 mg): 3.5 fold
Increase of geometric mean Cmax ([1]; dose from 300 to 600 mg): 2.6 fold
Increase of geometric mean AUC(0–24) ([1]; dose from 600 to 900 mg): 1.2 fold
Increase of geometric mean Cmax ([1]; dose from 600 to 900 mg): 1.6 fold
Increase of geometric mean Cmax ([1]; dose from 900 to 2000 mg (2.2-fold increase in dose)): 1.7 fold
AUC(0-t) ([1]; 300 mg, Cohort 1, Regimen A, 300 mg, Fasted, geometric mean (geometric CV%), read-out: AUC0-24): 1620 ng·h/mL
AUC(0-t) ([1]; 300 mg, Cohort 1, Regimen A, 300 mg, Fasted, geometric mean (geometric CV%), read-out: AUC0-last): 1320 ng·h/mL
AUC(0-inf) [1, 3]: 1630 ng·h/mL
Cmax [1, 3]: 665 ng/mL
half-life [1, 3]: 2.4 h
AUC(0-t) ([1]; 300 mg, fasted, geometric mean, read-out: AUC(0–48)): 1630 ng·h/mL
AUC(0-t) ([1]; 600 mg, Cohort 2, Regimen B, 600 mg, Fasted, geometric mean (geometric CV%), read-out: AUC0-24): 5660 ng·h/mL
AUC(0-t) ([1]; 600 mg, Cohort 2, Regimen B, 600 mg, Fasted, geometric mean (geometric CV%), read-out: AUC0-last): 4940 ng·h/mL
AUC(0-inf) [1, 4]: 5840 ng·h/mL
Cmax [1, 4]: 1740 ng/mL
half-life [1, 4]: 5 h
AUC(0-t) ([1]; 900 mg, Cohort 3, Regimen C, 900 mg, Fasted, geometric mean (geometric CV%), read-out: AUC0-24): 6870 ng·h/mL
AUC(0-t) ([1]; 900 mg, Cohort 3, Regimen C, 900 mg, Fasted, geometric mean (geometric CV%), read-out: AUC0-last): 6810 ng·h/mL
AUC(0-inf) [1, 5]: 6970 ng·h/mL
Cmax [1, 5]: 2700 ng/mL
half-life [1, 5]: 3.3 h
AUC(0-t) ([1]; 900 mg, Cohort 3, Regimen D, 900 mg, Fed, geometric mean (geometric CV%), read-out: AUC0-24): 6250 ng·h/mL
AUC(0-t) ([1]; 900 mg, Cohort 3, Regimen D, 900 mg, Fed, geometric mean (geometric CV%), read-out: AUC0-last): 6130 ng·h/mL
AUC(0-inf) [1, 6]: 5910 ng·h/mL
Cmax [1, 6]: 1200 ng/mL
half-life [1, 6]: 3.8 h
AUC(0-t) ([1]; 2000 mg, Cohort 4, Regimen E, 2000 mg, Fasted, geometric mean (geometric CV%), read-out: AUC0-24): 18900 ng·h/mL
AUC(0-t) ([1]; 2000 mg, Cohort 4, Regimen E, 2000 mg, Fasted, geometric mean (geometric CV%), read-out: AUC0-last): 19100 ng·h/mL
AUC(0-inf) [1, 7]: 19600 ng·h/mL
Cmax [1, 7]: 4590 ng/mL
half-life [1, 7]: 6 h
Tmax ([1]; 300 mg, Cohort 1, Regimen A, 300 mg oral suspension, Fasted): 1 h
Tmax ([1]; 600 mg, Cohort 2, Regimen B, 600 mg oral suspension, Fasted): 1 to 2 h
Tmax ([1]; 900 mg, Cohort 3, Period 1: Regimen C, 900 mg oral suspension, Fasted): 1 h
Tmax ([1]; 900 mg, Cohort 3, Period 2: Regimen D, 900 mg oral suspension, Fed): 1 to 8 h
Tmax ([1]; 2000 mg, Cohort 4, Regimen E, 2000 mg oral suspension, Fasted): 1 to 2 h
Frel AUC(0- last) (%) [1, 8]: 98.4% and 98.4a (16.3) %
Frel AUC(0-inf) (%) [1, 8]: 101% and 101a (20.3) %
Frel AUC(0–24) (%) [1, 8]: 99.2% and 99.2a (19.0) %
Frel Cmax (%) [1, 8]: 48.4% and 48.4a (21.9) %
Expression of FAAH, CORO2A, and RPL7L1 in PAG (scRNAseq) [2]: Downregulation
